Laboratory results as given in US10722514B2 (FLX Bio, Inc., priority 2017, dated 2020).
Where a name gives a salt, the structure may show the parent alone. Read-outs that look alike come from different tables or passages of the source.

Target: T1, recombinant full-length USP7 (Homo sapiens, UniProt Q93009)
T1 construct: A 25 μl reaction volume containing recombinant full-length USP7 (62 pM)
Assay: USP7-mediated ubiquitin-rhodamine cleavage assay
Format: biochemical
Conditions: recombinant full-length USP7 62 pM, ubiquitin-rhodamine 100 nM, 1 hour reaction at room temperature
How it was run: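 Rhodamine fluorescence read-out after acetic acid stop; IC50 by 4-parameter nonlinear regression. Enzyme at 62 pM, substrate ubiquitin-rhodamine 100 nM final, 1 h at room temperature in the dark, after 30 min compound preincubation. Buffer: HEPES pH 7.3, NaCl, TCEP, BSA; 1% DMSO.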

[1] = 30-minute incubation with compound, read-out: Potency: USP7 IC50
[2] = 30-minute pre-incubation, read-out: Potency (USP7 IC50)
[3] = 30-minute incubation, read-out: Potency (USP7 IC50)

T1 sequence (Q93009 whole entry): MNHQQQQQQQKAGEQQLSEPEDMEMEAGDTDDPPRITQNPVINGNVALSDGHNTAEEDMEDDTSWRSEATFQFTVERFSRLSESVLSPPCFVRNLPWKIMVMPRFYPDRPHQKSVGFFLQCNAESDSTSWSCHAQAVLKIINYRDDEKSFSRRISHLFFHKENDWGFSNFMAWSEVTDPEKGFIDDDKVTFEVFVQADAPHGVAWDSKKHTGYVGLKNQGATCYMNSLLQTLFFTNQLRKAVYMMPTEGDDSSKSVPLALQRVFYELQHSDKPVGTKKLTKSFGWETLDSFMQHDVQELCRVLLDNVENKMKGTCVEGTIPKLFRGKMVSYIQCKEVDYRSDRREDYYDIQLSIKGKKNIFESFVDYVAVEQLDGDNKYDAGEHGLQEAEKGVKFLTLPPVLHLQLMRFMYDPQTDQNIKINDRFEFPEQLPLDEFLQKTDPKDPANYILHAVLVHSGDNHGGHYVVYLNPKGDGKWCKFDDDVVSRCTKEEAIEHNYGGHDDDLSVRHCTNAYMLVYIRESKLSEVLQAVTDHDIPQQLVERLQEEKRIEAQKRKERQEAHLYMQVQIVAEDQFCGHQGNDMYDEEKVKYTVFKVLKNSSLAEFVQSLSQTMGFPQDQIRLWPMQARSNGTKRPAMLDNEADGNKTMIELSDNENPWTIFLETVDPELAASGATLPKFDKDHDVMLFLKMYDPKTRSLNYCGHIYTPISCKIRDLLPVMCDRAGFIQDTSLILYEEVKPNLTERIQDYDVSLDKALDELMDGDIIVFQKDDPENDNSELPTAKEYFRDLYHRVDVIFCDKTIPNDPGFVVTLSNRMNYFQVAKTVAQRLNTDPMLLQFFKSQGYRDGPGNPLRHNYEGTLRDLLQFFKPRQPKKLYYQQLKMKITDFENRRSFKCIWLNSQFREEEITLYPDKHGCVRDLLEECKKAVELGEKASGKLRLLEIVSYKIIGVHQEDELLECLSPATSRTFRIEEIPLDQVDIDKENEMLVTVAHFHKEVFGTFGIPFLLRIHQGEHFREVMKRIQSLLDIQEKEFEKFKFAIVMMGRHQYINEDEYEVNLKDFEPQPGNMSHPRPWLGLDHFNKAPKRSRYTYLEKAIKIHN

Compound	IC50 [1] [nM]	IC50 [2] [nM]	further results
Cc1cc(Cl)cc(-c2ncnc3cc(CN4C(=O)CCCC4=O)sc23)c1O[C@H]1CCCNC1 [Example 260, (S)-1-((4-(5-Chloro-3-methyl-2-(piperidin-3-yloxy)phenyl)thieno[3,2-d]pyrimidin-6-yl)methyl)piperidine-2,6-dione]	< 1000		
Cc1cc(Cl)cc(-c2ccnc3cc(Cn4c(=O)ccn(CC(F)(F)F)c4=O)sc23)c1OCC1CNCCO1 (stereo not drawn) [Example 651, 3-[[7-[5-chloro-3-methyl-2-(morpholin-2-ylmethoxy)phenyl]thieno[3,2-b]pyridin-2-yl]methyl]-1-(2,2,2-trifluoroethyl)pyrimidine-2,4-dione; 2,2,2-trifluoroacetic acid]		< 1000	
Cc1cc(Cl)cc(-c2ccnc3cc(CCN4C(=O)c5ccccc5S4(=O)=O)sc23)c1O[C@@H]1CNC[C@@H]1F [Example 139, 2-(2-(7-(5-Chloro-2-(((3R,4S)-4-fluoropyrrolidin-3-yl)oxy)-3-methylphenyl)thieno[3,2-b]pyridin-2-yl)ethyl)benzo[d]isothiazol-3(2H)-one 1,1-dioxide]	10000 to 30000		
3-((7-(5-Chloro-2-(((3S,4R)-4-fluoropiperidin-3-yl)oxy)-3-methyphenyl)thien[3,2-b]pyridin-2-yl)methyl)-1-(2,2,2-trifluoroethyl)pyrimidine-2,4(1H,3H)-dione [Example 4]	< 1000		
Cc1cc(Cl)cc(-c2ccnc3ccsc23)c1O[C@H]1CCCNC1 [Example 167, (S)-7-(5-Chloro-3-methyl-2-(piperidin-3-yloxy)phenyl)thieno[3,2-b]pyridine]	10000 to 30000		
Cc1cc(Cl)cc(-c2ccnc3cc(Cn4c(=O)ccn(CC(F)(F)F)c4=O)sc23)c1O[C@@H]1CCNC[C@H]1C [Example 275, 3-((7-(5-Chloro-3-methyl-2-(((3R,4R)-3-methylpiperidin-4-yl)oxy)phenyl)thieno[3,2-b]pyridin-2-yl)methyl)-1-(2,2,2-trifluoroethyl)pyrimidine-2,4(1H,3H)-dione]	< 1000		
Cc1cc(Cl)cc(-c2ccnc3cc(CN4C(=O)NC(C)(C)C4=O)sc23)c1O[C@@H]1CNC[C@@H]1F [Example 154, 3-((7-(5-Chloro-2-(((3R,4S)-4-fluoropyrrolidin-3-yl)oxy)-3-methylphenyl)thieno[3,2-b]pyridin-2-yl)methyl)-5,5-dimethylimidazolidine-2,4-dione]	< 1000		
Cc1cc(Cl)cc(-c2ncnc3cc(Cn4c(=O)ccn(CC(F)(F)F)c4=O)sc23)c1O[C@@H]1CCNC[C@H]1C [Example 561, 3-[[4-[5-chloro-3-methyl-2-[[(3R,4R)-3-methyl-4-piperidyl]oxy]phenyl]thieno[3,2-d]pyrimidin-6-yl]methyl]-1-(2,2,2-trifluoroethyl)pyrimidine-2,4-dione]		< 1000	
Cc1cc(Cl)cc(-c2ccnc3cc(Cn4c(=O)ccn(C)c4=O)sc23)c1O[C@@H]1CCN(C(C)C)C[C@@H]1C [Example 488, 3-[[7-[5-chloro-2-[[(3S,4R)-1-isopropyl-3-methyl-4-piperidyl]oxy]-3-methyl-phenyl]thieno[3,2-b]pyridin-2-yl]methyl]-1-methyl-pyrimidine-2,4-dione]		< 1000	
Cc1cc(Cl)cc(-c2ccnc3cc(CN4C(=O)C5C(C4=O)C5(C)C)sc23)c1O[C@@H]1C[C@H]2CN[C@@H]1C2 (stereo partly drawn) [Example 331, 3-[[7-[2-[[(1S,4R,5R)-3-azabicyclo[2.2.1]heptan-5-yl]oxy]-5-chloro-3-methyl-phenyl]thieno[3,2-b]pyridin-2-yl]methyl]-6,6-dimethyl-3-azabicyclo[3.1.0]hexane-2,4-dione]	< 1000		
Cc1cc(Cl)cc(-c2ccnc3cc(CN4C(=O)C[C@H](O)C4=O)sc23)c1OC1CCNCC1 [Example 417, (3S)-1-[[7-[5-chloro-3-methyl-2-(4-piperidyloxy)phenyl]thieno[3,2-b]pyridin-2-yl]methyl]-3-hydroxy-pyrrolidine-2,5-dione dihydrochloride]		< 1000	
Cc1cc(Cl)cc(-c2ccnc3cc(CN4C(=O)C5CC5C4=O)sc23)c1O[C@@H]1CN(C)C[C@@H]1F (stereo partly drawn) [Example 314, 3-[[7-[5-chloro-2-[(3R,4S)-4-fluoro-1-methyl-pyrrolidin-3-yl]oxy-3-methyl-phenyl]thieno[3,2-b]pyridin-2-yl]methyl]-3-azabicyclo[3.1.0]hexane-2,4-dione]	< 1000		
Cc1cc(Cl)cc(-c2ncnc3cc(CN4C(=O)CCC4=O)sc23)c1O[C@@H]1CNC[C@@H]1F [Example 113, 1-((4-(5-Chloro-2-(((3R,4S)-4-fluoropyrrolidin-3-yl)oxy)-3-methylphenyl)thieno[3,2-d]pyrimidin-6-yl)methyl)pyrrolidine-2,5-dione]	1000 to 10000		
Cc1cc(Cl)cc(-c2ccnc3cc(Cn4c(=O)ccn(CC(F)(F)F)c4=O)sc23)c1OC1CCCCC1 [Example 665, 3-[[7-[5-chloro-2-(cyclohexoxy)-3-methyl-phenyl]thieno[3,2-b]pyridin-2-yl]methyl]-1-(2,2,2-trifluoroethyl)pyrimidine-2,4-dione]		< 1000	
Cc1cc(Cl)cc(-c2ccnc3cc(Cn4c(=O)ccn(CC(F)(F)F)c4=O)sc23)c1OC1(C)CCNCC1 [Example 618, 3-[[7-[5-chloro-3-methyl-2-[(4-methyl-4-piperidyl)oxy]phenyl]thieno[3,2-b]pyridin-2-yl]methyl]-1-(2,2,2-trifluoroethyl)pyrimidine-2,4-dione]		< 1000	
Cc1cc(C(F)(F)F)cc(-c2ccnc3cc(CN4C(=O)CCC4=O)sc23)c1O[C@H]1CCCNC1 [Example 254, (S)-1-((7-(3-Methyl-2-(piperidin-3-yloxy)-5-(trifluoromethyl)phenyl)thieno[3,2-b]pyridin-2-yl)methyl)pyrrolidine-2,5-dione]	< 1000		
Cc1cc(Cl)cc(-c2ncnc3cc(Cn4c(=O)ccn(C(C)C)c4=O)sc23)c1O[C@@H]1CCN(C)C[C@@H]1C [Example 510, 3-[[4-[5-chloro-2-[[(3S,4R)-1,3-dimethyl-4-piperidyl]oxy]-3-methyl-phenyl]thieno[3,2-d]pyrimidin-6-yl]methyl]-1-isopropyl-pyrimidine-2,4-dione]		< 1000	
Cc1cc(Cl)cc(-c2ccnc3cc(Cn4c(=O)ccn(CC(F)(F)F)c4=O)sc23)c1Oc1ccncc1 [Example 681, 3-[[7-[5-chloro-3-methyl-2-(4-pyridyloxy)phenyl]thieno[3,2-b]pyridin-2-yl]methyl]-1-(2,2,2-trifluoroethyl)pyrimidine-2,4-dione; 2,2,2-trifluoroacetic acid]			IC50 [3]: < 1000 nM
Cc1cc(C(F)(F)F)cc(-c2ccnc3cc(CN4C(=O)CCC4=O)sc23)c1O[C@@H]1CNC[C@@H]1F [Example 63, 1-((7-(2-(((3R,4S)-4-Fluoropyrrolidin-3-yl)oxy)-3-methyl-5-(trifluoromethyl)phenyl)thieno[3,2-b]pyridin-2-yl)methyl)pyrrolidine-2,5-dione]	< 1000		
Cc1cc(Cl)cc(-c2ccnc3cc(CO)sc23)c1O[C@@H]1CNC[C@@H]1F [Example 57, (7-(5-Chloro-2-(((3R,4S)-4-fluoropyrrolidin-3-yl)oxy)-3-methylphenyl)thieno[3,2-b]pyridin-2-yl)methanol]	1000 to 10000		
Cc1cc(Cl)cc(-c2ccnc3cc(CN4C(=O)C5C(C4=O)C5(C)C)sc23)c1O[C@H]1CC[C@H](N)C1 (stereo partly drawn) [Example 394, 3-[[7-[2-[(1S,3S)-3-aminocyclopentoxy]-5-chloro-3-methyl-phenyl]thieno[3,2-b]pyridin-2-yl]methyl]-6,6-dimethyl-3-azabicyclo[3.1.0]hexane-2,4-dione dihydrochloride]	< 1000		
Cc1cc(Cl)cc(-c2ccnc3c(F)c(CO)sc23)c1O[C@@H]1CNC[C@@H]1F [Example 407, [7-[5-chloro-2-[(3R,4S)-4-fluoropyrrolidin-3-yl]oxy-3-methyl-phenyl]-3-fluoro-thieno[3,2-b]pyridin-2-yl]methanol]		< 1000	
Cc1cc(Cl)cc(-c2ccnc3cc(Cn4c(=O)ccn(C)c4=O)sc23)c1O[C@H]1CCCNCC1 [Example 8, (S)-3-((7-(2-(Azepan-4-yloxy)-5-chloro-3-methylphenyl)thieno[3,2-b]pyridin-2-yl)methyl)-1-methylpyrimidine-2,4(1H,3H)-dione]	< 1000		
Cc1cc(Cl)cc(-c2ccnc3cc(CN4C(=O)CN(C)C4=O)sc23)c1OC1CCNCC1 [Example 224, 3-((7-(5-Chloro-3-methyl-2-(piperidin-4-yloxy)phenyl)thieno[3,2-b]pyridin-2-yl)methyl)-1-methylimidazolidine-2,4-dione]	1000 to 10000		
Cc1cc(Cl)cc(-c2ncnc3cc(Cn4c(=O)ccn(C(C)C)c4=O)sc23)c1O[C@H]1CCCN(C(C)C)C1 [Example 513, 3-[[4-[5-chloro-2-[[(3S)-1-isopropyl-3-piperidyl]oxy]-3-methyl-phenyl]thieno[3,2-d]pyrimidin-6-yl]methyl]-1-isopropyl-pyrimidine-2,4-dione]		< 1000	
Cc1cc(Cl)cc(-c2ccnc3cc(Cn4c(=O)ccn(CC(F)(F)F)c4=O)sc23)c1OC1CCS(=O)(=O)CC1 [Example 680, 3-[[7-[5-chloro-2-(1,1-dioxoothian-4-yl)oxy-3-methyl-phenyl]thieno[3,2-b]pyridin-2-yl]methyl]-1-(2,2,2-trifluoroethyl)pyrimidine-2,4-dione]			IC50 [3]: < 1000 nM
Cc1cc(Cl)cc(-c2ccnc3cc(Cn4c(=O)ccn(CC(F)(F)F)c4=O)sc23)c1OC1CC(N2CCC[C@H]2CO)C1 (stereo partly drawn) [Example 624, 3-[[7-[5-chloro-2-[3-[(2S)-2-(hydroxymethyl)pyrrolidin-1-yl]cyclobutoxy]-3-methyl-phenyl]thieno[3,2-b]pyridin-2-yl]methyl]-1-(2,2,2-trifluoroethyl)pyrimidine-2,4-dione dihydrochloride]		< 1000	
